Patent US12251366B1, “Sulforaphane-cysteine for wound healing in diabetic subjects” (KUWAIT UNIVERSITY, priority 2024, dated 2025)

Tested on: TNF-α
Experiment: Cytokine ELISA, LPS-stimulated peritoneal macrophages (TNF-α)
Assay type: cell-based, mouse
Conditions: LPS-stimulated macrophages, mouse model of type 2 diabetes
Text: This was exemplified in the current study by the ability of SFN-CYS to inhibit lipopolysaccharide (LPS)-induced peritoneal macrophages and bone marrow-derived macrophages to produce tumor necrosis factor-α (TNF-α) and interlukin-6 (IL-6). TNF-α and IL-6 are two of the major inflammatory mediators that contribute to the pathogenesis of low-grade inflammation; a phenomenon which is commonly associated with the diabetic state. […] Pre-treatment with SFN-Cys inhibited the expression of LPS-induced TNF-α and IL-6 protein at a therapeutic dose of 1.5 μM (FIGS. 1A and 1B).
Thioglycollate-elicited mouse peritoneal macrophages were prepared from C57BL (8-10 weeks old) and cultured in RPMI 1640 with 10% (v/v) FCS Bone marrow-derived macrophages were generated in RPMI medium containing M-CSF (10 ng/mL) according to previously published procedure. For cytokine ELISA assay, cells were seeded at 5×10^5 in 12-well plates, whereas for mRNA expression, the cells were seeded at […]. LPS and used at a dose of 100 ng/mL. Similarly. SFN-Cys was used at a concentration of 1.5 umol/L.
For cytokine ELISA, supernatants from cultured macrophages were collected in response to treatment with SFN and SFN-Cys for 6 h. The total TNF-α and TL-6 were measured by enzyme-linked immunosorbent assay (ELISA) using kits (R&D system, USA) according to the manufacturer's protocols.

Compound: C[S+]([O-])CCCCN=C=S (stereo not shown) [SFN, Sulforaphane]
- anti-inflammatory activity (overall, SFN-Cys compared with SFN): exhibited anti-inflammatory and antioxidant activities
